{
  "source": "patent US20170071976A1",
  "about": "“PHARMACEUTICAL SOLUTION HAVING ANTI-TUMOR EFFECT-ENHANCING AND TOXICITY-REDUCING EFFECT, AND PHARMACEUTICAL COMPOSITION COMPRISING SAME” (priority 2014, published 2017)",
  "key": {"[1]": {"system": "xenograft tumors from human colon cancer HCT-116 cells", "experiment": "HCT-116 xenograft in nude mice, intravenous deuterium oxide in combination with 5-fluorouracil", "format": "in vivo, BALB/c nude mice", "details": "for Inhibition (%): tumor weight", "description": "Ltd. Cell lines: human colon cancer cells HCT-116 were provided by NANJING […] BIOTECH. CO., LTD. […] Bone marrow nucleated cells were isolated by a routine method, DNA was extracted from the cells, the OD value was measured in a UV-260 spectrometer as a representative of the DNA content, and inhibition of DNA synthesis by the test samples was observed. The test used 7 groups in total, with 8 animals per group. […] Tumor volume (TV) was calculated by the following equation: […] From the measurements, relative tumor volume (RTV) was calculated by the following equation: RTV=Vt/V0 Relative tumor growth ratio T/C (%) was calculated by the following equation: Criteria of efficacy evaluation: […] T/C %≦40% and statistically P<0.05, efficacious. Inhibition of tumor growth (%) was calculated by the following equation: Criteria of efficacy evaluation: […] The mean value was expressed in X±SD. Inter-group analysis was statistically performed with t test. The results were statistically analyzed using SPSS (Statistical Package for the Social Science) 17.0."}, "[2]": {"system": "human colon cancer HCT-116 cells inoculated into the peritoneal cavity", "experiment": "Survival of nude mice bearing HCT-116 cells, 42° C. intraperitoneal retention lavage with hydroxyethyl starch or sodium chloride deuterium oxide solution and 5-FU", "format": "in vivo", "details": "42° C. NS 10 ml/kg + 5-FU 20 mg/kg, i.p. lavage x 5", "description": "Comparison of survival time of nude mice bearing human colon cancer HCT-116 cells upon 42° C. hyperthermic intraperitoneal retention lavage using a hydroxyethyl starch deuterium oxide solution in combination with 5-FU and using a sodium chloride deuterium oxide solution in combination with 5-FU.\nAnimal: 4 to 5 week-aged male nude mice, provided by Shanghai SIPPR-BK Laboratory Animal Co. Ltd.\nCell lines: human colon cancer cell line HCT-116 was provided by NANJING KEYGEN BIOTECH. CO., LTD.\nModeling: 0.2 ml suspension of HCT-116 cancer cells containing 1×10^7 cells/ml (2×10^6 cells in total) was inoculated into the peritoneal cavity of the nude mice.\nGrouping and dosing: the mouse model was established 7 to 8 days after inoculation into the nude mice, and the mice were randomized with 18 animals/group.\n5-FU was separately dissolved in the hydroxyethyl starch deuterium oxide solution at 42° C., and in the sodium chloride deuterium oxide solution at 42° C., for intraperitoneal lavage of tumor-bearing mice.\n1). […]\nThe peritoneal cavity of nude mice was lavaged with the above compositions which were retained for 20 min in the peritoneal cavity after being introduced, which was performed once a day for 5 successive times. The body weight and abdomen circumference of the nude mice were measured on each day before administration of the drugs, and the daily living status of mice was observed. […]"}, "[3]": {"system": "human lung cancer A549 cells", "experiment": "Cell cycle by PI single staining (flow cytometry)", "format": "cell-based", "details": "deuterium oxide 30% v/v, 72 hours", "description": "Effect of deuterium oxide on the cell cycle of human lung cancer A549 cells and human colon cancer HCT-116 cells Human lung cancer A549 cells and human colon cancer HCT-116 cells were provided by NANJING […] BIOTECH. CO., LTD., and cultured in an incubator at 37° C., 5% CO2 and saturated humidity. A KGA511 Cell cycle assay kit was provided by NANJING […] BIOTECH. CO., LTD. The flow cytometer was FACS Calibur provided by Becton-Dickinson, US. […] The cell suspension was centrifuged at 800 to 1,000 rpm for 5 min, and the supernatant was discarded; 1.4. A complete culture medium was added to the cell pellet which was well mixed by gentle pipetting, the cell suspension was transferred to a culture flask, and the cells were cultured by supplementing culture medium. […] When all the cells became round, an equal volume of culture medium containing serum was added to cease the digestion; 2.4. The cells were blown by pipetting to suspend, then drawn into a 15 ml centrifugal tube, and centrifuged at 1000 rpm for 5 min; 2.5. […] 1. Cells growing in the exponential phase were digested and inoculated to a 6-well plate; on the next day, after the cells attached to the wall, cell culture media containing corresponding test drugs were added according to different groups, and a negative control group was also set; 2. […] The cells were washed with PBS once (centrifuged at 2,000 rpm for 5 min), and 5×10^5 cells were collected; 4. […] In a detection apparatus, red fluorescence with an excitation wavelength of 488 nm was recorded."}, "[4]": {"details": "5-FU(H) 30 mg/kg × 11, tail vein"}, "[5]": {"details": "5-FU(L) 12 mg/kg × 11, tail vein"}},
  "note": "Values joined by “and” are separate entries in the source; they are usually repeats but may differ in a detail not shown here. Equal entries are not always repeated. Marks after values point to notes of the source that are not given here.",
  "data": [
    {"smiles": "O=c1[nH]cc(F)c(=O)[nH]1", "note": "[Example 5-FU, 5-fluorouracil]", "values": [
      {"measurement": "Body weight (g) End, given as change", "setting": "[1]; [4]", "result": -1.0, "unit": "g"},
      {"measurement": "Body weight (g) Initial", "setting": "[1]; [4]", "result": "18.4 ± 0.5 g and 18.4 g"},
      {"measurement": "Bone marrow DNA content (OD)", "setting": "[1]; [4]", "result": "0.836 ± 0.5023", "unit": "OD"},
      {"measurement": "Tumor weight", "setting": "[1]; [4]", "result": "1.04 ± 0.13", "unit": "g"},
      {"measurement": "Body weight (g) End, given as change", "setting": "[1]; [5]", "result": -0.6, "unit": "g"},
      {"measurement": "Body weight (g) Initial", "setting": "[1]; [5]", "result": 18.0, "unit": "g"},
      {"measurement": "Bone marrow DNA content (OD)", "setting": "[1]; [5]", "result": "0.897 ± 0.3783", "unit": "OD"},
      {"measurement": "Tumor weight", "setting": "[1]; [5]", "result": "2.23 ± 0.2", "unit": "g"},
      {"measurement": "tumor volume", "setting": "[1]; 21 days after administration, low-dose 5-FU alone", "result": "2.27±0.30", "unit": "cm^3"},
      {"measurement": "body weight at end", "setting": "[1]; high-dose 5-FU positive control", "result": "17.4 ± 0.5", "unit": "g"},
      {"measurement": "T/C (relative tumor growth ratio)", "setting": "[1]; low-dose 5-FU alone, vs negative control", "result": 80.91, "unit": "%"},
      {"measurement": "Inhibition (%)", "setting": "[1]; [4]", "result": 64.38, "unit": "%*"},
      {"measurement": "Inhibition (%)", "setting": "[1]; [5]", "result": "23.64% and 23.63%"},
      {"measurement": "T/C(%)", "setting": "[2]", "result": 138.7, "unit": "%"},
      {"measurement": "MST", "setting": "[2]; control 12.4 ± 2.9", "result": "17.2 ± 2.2", "unit": "days"}
    ]},
    {"smiles": "[2H]O[2H]", "note": "[Deuterium oxide]", "values": [
      {"measurement": "G2 Phase", "setting": "[3]; control 6.21 ± 4.52", "result": "13.47 ± 3.94", "unit": "%"},
      {"measurement": "S Phase", "setting": "[3]; control 13.50 ± 1.33", "result": "0.31 ± 0.28", "unit": "%"},
      {"measurement": "G1 Phase", "setting": "[3]; control 80.29 ± 5.02", "result": "86.23 ± 3.69", "unit": "%"}
    ]}
  ]
}
